US10450270B2, “Glyoxamide substituted pyrrolamide derivatives and the use thereof as medicaments for the treatment of hepatitis B” (Janssen Sciences Ireland UC, priority 2013, dated 2019)

Legend:
HBV [1] = test: Anti-HBV activity, HepG2.2.15 stable transfected cell line, HBV DNA from secreted virions by realtime PCR; assay type: cell-based; conditions: Hepatitis B virus
HBV [2] = test: Anti-HBV activity, HepG2.117 inducible HBV producing cell line (Tet-off), intracellular HBV DNA by realtime PCR; assay type: cell-based; conditions: Hepatitis B virus
[3] = Cytotoxicity in HepG2 cells, Resazurin viability assay; conditions: human
[4] = 144 h, HepG2.2.15 cells, 6 days of treatment, HBV DNA from secreted virions, read-out: HepG 2.2.15 EC50
[5] = 72 h, HepG2.117 cells, 3 days of treatment, intracellular HBV DNA, read-out: HepG2 117 EC50
[6] = HepG2.2.15, 144 h, read-out: HepG 2.2.15 EC50 (μM)
[7] = HepG2.117, 72 h, read-out: HepG2 117 EC50 (μM)

For `Cc1c(C(=O)C(=O)N[C@H](C)C(F)(F)F)cc(C(=O)Nc2ccc(F)c(C#N)c2)n1C` [Compound 28, N-(3-cyano-4-fluoro-phenyl)-1,5-dimethyl-4-[2-oxo-2-[[(1R)-2,2,2-trifluoro-1-methyl-ethyl]amino]acetyl]pyrrole-2-carboxamide], the EC50 (HBV [1]; [4]) was less than 0.004 µM, the EC50 (HBV [2]; [5]) was 0.019 µM and the CC50 at 4 days ([3]; HepG2 cells) was greater than 25 µM.
In the case of `Cc1cc(NC(=O)c2cc(C(=O)C(=O)NC(C)(C)C(N)=O)cn2C)ccc1F` [Compound 8, 4-{[(2-Amino-1,1-dimethyl-2-oxoethyl)amino](oxo)acetyl}-N-(4-fluoro-3-methylphenyl)-1-methyl-1H-pyrrole-2-carboxamide], the EC50 (HBV [1]; [4]) is reported as 0.052 µM, the EC50 (HBV [2]; [5]) is reported as 0.038 µM and the CC50 at 4 days ([3]; HepG2 cells) is reported as greater than 25 µM.
In the case of `Cc1c(C(=O)C(=O)NC(C)(C)C)cn(C)c1C(=O)Nc1ccc(F)c(C#N)c1` [Compound 22, 4-[(tert-Butylamino)(oxo)acetyl]-N-(3-cyano-4-fluorophenyl)-1,3-dimethyl-1H-pyrrole-2-carboxamide], the EC50 (HBV [1]; [4]) is reported as 0.01 µM, the EC50 (HBV [2]; [5]) is reported as 0.008 µM and the CC50 at 4 days ([3]; HepG2 cells) is reported as greater than 25 µM.
For `Cn1cc(C(=O)C(=O)NC2(C)COC2)cc1C(=O)Nc1cc(F)c(F)c(Cl)c1` [Compound 17, N-(3-Chloro-4,5-difluorophenyl)-1-methyl-4-{[(3-methyloxetan-3-yl)-amino](oxo)acetyl}-1H-pyrrole-2-carboxamide], the EC50 (HBV [1]; [4]) was 0.029 µM, the EC50 (HBV [2]; [5]) was 0.57 µM and the CC50 at 4 days ([3]; HepG2 cells) was greater than 25 µM.
Work on `Cn1cc(C(=O)C(=O)NC(C)(C)C)c(Cl)c1C(=O)Nc1ccc(F)c(C#N)c1` [Compound 23, 4-[(tert-Butylamino)(oxo)acetyl]-3-chloro-N-(3-cyano-4-fluorophenyl)-1-methyl-1H-pyrrole-2-carboxamide] yielded an EC50 (HBV [1]; [4]) of 0.005 µM, an EC50 (HBV [2]; [5]) of 0.008 µM and a CC50 at 4 days ([3]; HepG2 cells) greater than 25 µM.
Compound `C[C@@H](NC(=O)C(=O)c1cn(C)c(C(=O)Nc2ccc(F)c(C#N)c2)c1Cl)C(F)(F)F` [Compound 24, 3-chloro-N-(3-cyano-4-fluoro-phenyl)-1-methyl-4-[2-oxo-2-[[(1R)-2,2,2-trifluoro-1-methyl-ethyl]amino]acetyl]pyrrole-2-carboxamide] has an EC50 (HBV [1]; [4]) of 0.02 µM, an EC50 (HBV [2]; [5]) of 0.024 µM and a CC50 at 4 days ([3]; HepG2 cells) greater than 25 µM.
With `Cc1cc(NC(=O)c2cc(C(=O)C(=O)NC(C)C)cn2C)ccc1F` [Compound 2, N-(4-fluoro-3-methylphenyl)-4-(2-(isopropylamino)-2-oxoacetyl)-1-methyl-1H-pyrrole-2-carboxamide] the EC50 (HBV [1]; [6]) was 0.029 µM, the EC50 (HBV [2]; [7]) was 0.75 µM and the CC50 at 4 days ([3]; HepG2 cells) was greater than 25 µM.
Compound `Cc1c(C(=O)C(=O)NC(C)(C)C)c(C)n(C)c1C(=O)Nc1ccc(F)c(F)c1` [Compound 20, 4-[(tert-Butylamino)(oxo)acetyl]-N-(3,4-difluorophenyl)-1,3,5-trimethyl-1H-pyrrole-2-carboxamide] has an EC50 (HBV [1]; [4]) of less than 0.004 µM, an EC50 (HBV [2]; [5]) of 0.002 µM and a CC50 at 4 days ([3]; HepG2 cells) greater than 25 µM.
`Cc1c(C(=O)C(=O)NC(C)(C)C)cn(C)c1C(=O)Nc1ccc(F)c(F)c1` [Compound 21, 4-[(tert-Butylamino)(oxo)acetyl]-N-(3,4-difluorophenyl)-1,3-dimethyl-1H-pyrrole-2-carboxamide] showed an EC50 (HBV [1]; [4]) of 0.009 µM, an EC50 (HBV [2]; [5]) of 0.011 µM and a CC50 at 4 days ([3]; HepG2 cells) greater than 25 µM.
Work on `Cn1cc(C(=O)C(=O)NC(C)(C)C)cc1C(=O)Nc1cccc(C(F)(F)F)c1` [Compound 12, 4-(2-(tert-butylamino)-2-oxoacetyl)-1-methyl-N-(3-(trifluoromethyl)phenyl)-1H-pyrrole-2-carboxamide] yielded an EC50 (HBV [1]; [6]) of 0.043 µM, an EC50 (HBV [2]; [7]) of 0.74 µM and a CC50 at 4 days [3] greater than 25 µM.
With `Cn1cc(C(=O)C(=O)NC2(C)COC2)cc1C(=O)Nc1ccc(F)c(C#N)c1` [Compound 16, N-(3-Cyano-4-fluorophenyl)-1-methyl-4-{[(3-methyloxetan-3-yl)amino]-(oxo)acetyl}-1H-pyrrole-2-carboxamide] the EC50 (HBV [1]; [4]) was 0.048 µM, the EC50 (HBV [2]; [5]) was 0.04 µM and the CC50 at 4 days ([3]; HepG2 cells) was greater than 25 µM.
`Cn1cc(C(=O)C(=O)NC(C)(C)C)cc1C(=O)Nc1ccc(F)c(C#N)c1` [Compound 15, 4-(2-(tert-butylamino)-2-oxoacetyl)-N-(3-cyano-4-fluorophenyl)-1-methyl-1H-pyrrole-2-carboxamide] gave an EC50 (HBV [1]; [4]) of 0.027 µM, an EC50 (HBV [2]; [5]) of 0.043 µM and a CC50 at 4 days ([3]; HepG2 cells) greater than 25 µM.
Compound `Cc1c(C(=O)C(=O)NC(C)(C)C)c(C)n(C)c1C(=O)Nc1ccc(F)c(C#N)c1` [Compound 19, 4-[(tert-Butylamino)(oxo)acetyl]-N-(3-cyano-4-fluorophenyl)-1,3,5-trimethyl-1H-pyrrole-2-carboxamide] has an EC50 (HBV [1]; [4]) of less than 0.004 µM, an EC50 (HBV [2]; [5]) of 0.002 µM and a CC50 at 4 days ([3]; HepG2 cells) greater than 100 µM.
`Cn1cc(C(=O)C(=O)NC(C)(C)C)cc1C(=O)Nc1cc(F)c(F)c(Cl)c1` [Compound 14, 4-(2-(tert-butylamino)-2-oxoacetyl)-N-(3-chloro-4,5-difluorophenyl)-1-methyl-1H-pyrrole-2-carboxamide] showed an EC50 (HBV [1]; [4]) of 0.03 µM, an EC50 (HBV [2]; [5]) of 0.038 µM and a CC50 at 4 days ([3]; HepG2 cells) greater than 25 µM.
Work on `Cn1c(Cl)c(C(=O)C(=O)NC2(C(F)(F)F)CCC2)c(F)c1C(=O)Nc1ccc(F)c(C#N)c1` [Compound 90, 5-chloro-N-(3-cyano-4-fluoro-phenyl)-3-fluoro-1-methyl-4-[2-oxo-2-[[1-(trifluoromethyl)cyclobutyl]amino]acetyl]pyrrole-2-carboxamide] yielded an EC50 (HBV [2]; [5]) of 0.032 µM and a CC50 at 4 days ([3]; HepG2 cells) greater than 25 µM.
`CC[C@H](C)[C@@H](CO)NC(=O)C(=O)c1cc(C(=O)Nc2ccc(F)c(C#N)c2)n(C)c1C` [Compound 69, N-(3-cyano-4-fluoro-phenyl)-4-[2-[[(1S,2S)-1-(hydroxymethyl)-2-methyl-butyl]amino]-2-oxo-acetyl]-1,5-dimethyl-pyrrole-2-carboxamide] gave an EC50 (HBV [2]; [5]) of 0.049 µM and a CC50 at 4 days ([3]; HepG2 cells) greater than 25 µM.
For `CC[C@@H](C)NC(=O)C(=O)c1cc(C(=O)Nc2ccc(F)c(C#N)c2)n(C)c1C` [Compound 53, N-(3-cyano-4-fluoro-phenyl)-1,5-dimethyl-4-[2-[[(1R)-1-methylpropyl]-amino]-2-oxo-acetyl]pyrrole-2-carboxamide], the EC50 (HBV [2]; [5]) was 0.039 µM and the CC50 at 4 days ([3]; HepG2 cells) was greater than 25 µM.
For `Cc1c(C(=O)C(=O)NC2(C)COC2)cc(C(=O)Nc2ccc(F)c(C#N)c2)n1C` [Compound 60, N-(3-cyano-4-fluoro-phenyl)-1,5-dimethyl-4-[2-[(3-methyloxetan-3-yl)-amino]-2-oxo-acetyl]pyrrole-2-carboxamide], the EC50 (HBV [2]; [5]) was 0.011 µM and the CC50 at 4 days ([3]; HepG2 cells) was greater than 25 µM.
`Cc1c(C(=O)C(=O)NC2(C)CC(F)(F)C2)c(Cl)c(C(=O)Nc2ccc(F)c(C#N)c2)n1C` [Compound 47, 3-chloro-N-(3-cyano-4-fluoro-phenyl)-4-[2-[(3,3-difluoro-1-methyl-cyclo-butyl)amino]-2-oxo-acetyl]-1,5-dimethyl-pyrrole-2-carboxamide] showed an EC50 (HBV [2]; [5]) of less than 0.004 µM and a CC50 at 4 days ([3]; HepG2 cells) greater than 25 µM.
`Cc1c(C(=O)C(=O)NC(C)(C)C(F)(F)F)cc(C(=O)Nc2ccc(F)c(C#N)c2)n1C` [Compound 58, N-(3-cyano-4-fluoro-phenyl)-1,5-dimethyl-4-[2-oxo-2-[(2,2,2-trifluoro-1,1-dimethyl-ethyl)amino]acetyl]pyrrole-2-carboxamide] showed an EC50 (HBV [2]; [5]) of 0.006 µM and a CC50 at 4 days ([3]; HepG2 cells) greater than 25 µM.
With `Cn1cc(C(=O)C(=O)NC2(C(F)(F)F)CCC2)c(Cl)c1C(=O)Nc1ccc(F)c(C#N)c1` [Compound 39, 3-chloro-N-(3-cyano-4-fluoro-phenyl)-1-methyl-4-[2-oxo-2-[[1-(tri-fluoromethyl)cyclobutyl]amino]acetyl]pyrrole-2-carboxamide] the EC50 (HBV [2]; [5]) was 0.006 µM and the CC50 at 4 days ([3]; HepG2 cells) was greater than 25 µM.
`Cc1c(C(=O)C(=O)N[C@H](C)C(C)(F)F)cc(C(=O)Nc2ccc(F)c(C#N)c2)n1C` [Compound 54, N-(3-cyano-4-fluoro-phenyl)-4-[2-[[(1R)-2,2-difluoro-1-methyl-propyl]-amino]-2-oxo-acetyl]-1,5-dimethyl-pyrrole-2-carboxamide] showed an EC50 (HBV [2]; [5]) of 0.01 µM and a CC50 at 4 days ([3]; HepG2 cells) greater than 25 µM.
`C[C@@H](NC(=O)C(=O)c1cn(C)c(C(=O)Nc2ccc(F)c(C#N)c2)c1F)C(F)(F)F` [Compound 85, N-(3-cyano-4-fluoro-phenyl)-3-fluoro-1-methyl-4-[2-oxo-2-[[(1R)-2,2,2-trifluoro-1-methyl-ethyl]amino]acetyl]pyrrole-2-carboxamide] gave an EC50 (HBV [2]; [5]) of 0.014 µM and a CC50 at 4 days ([3]; HepG2 cells) greater than 25 µM.
In the case of `COCC(C)(C)NC(=O)C(=O)c1cn(C)c(C(=O)Nc2ccc(F)c(C#N)c2)c1F` [Compound 96, N-(3-cyano-4-fluoro-phenyl)-3-fluoro-4-[2-[(2-methoxy-1,1-dimethyl-ethyl)amino]-2-oxo-acetyl]-1-methyl-pyrrole-2-carboxamide], the EC50 (HBV [2]; [5]) is reported as 0.006 µM and the CC50 at 4 days ([3]; HepG2 cells) is reported as greater than 25 µM.
In the case of `CCC(C)(CO)NC(=O)C(=O)c1cc(C(=O)Nc2ccc(F)c(C#N)c2)n(C)c1C` (stereo not shown) [Compound 76, N-(3-cyano-4-fluoro-phenyl)-4-[2-[[1-(hydroxymethyl)-1-methyl-propyl]-amino]-2-oxo-acetyl]-1,5-dimethyl-pyrrole-2-carboxamide], the EC50 (HBV [2]; [5]) is reported as 0.013 µM and the CC50 at 4 days ([3]; HepG2 cells) is reported as greater than 25 µM.
Work on `Cc1c(C(=O)C(=O)N[C@H]2CCC[C@@H]2O)cc(C(=O)Nc2ccc(F)c(C#N)c2)n1C` [Compound 65, N-(3-cyano-4-fluoro-phenyl)-4-[2-[[(1S,2S)-2-hydroxycyclopentyl]amino]-2-oxo-acetyl]-1,5-dimethyl-pyrrole-2-carboxamide] yielded an EC50 (HBV [2]; [5]) of 0.16 µM and a CC50 at 4 days ([3]; HepG2 cells) greater than 25 µM.
Work on `COCC(C)(NC(=O)C(=O)c1cc(C(=O)Nc2ccc(F)c(C#N)c2)n(C)c1C)C(F)(F)F` (stereo not shown) [Compound 80, N-(3-cyano-4-fluoro-phenyl)-1,5-dimethyl-4-[2-oxo-2-[[2,2,2-trifluoro-1-(methoxymethyl)-1-methyl-ethyl]amino]acetyl]pyrrole-2-carboxamide] yielded an EC50 (HBV [2]; [5]) of 0.007 µM and a CC50 at 4 days ([3]; HepG2 cells) greater than 25 µM.
`Cc1c(C(=O)C(=O)NC2(C(F)(F)F)CCOC2)c(Cl)c(C(=O)Nc2ccc(F)c(C#N)c2)n1C` (racemic) [Compound 41, 3-chloro-N-(3-cyano-4-fluoro-phenyl)-1,5-dimethyl-4-[2-oxo-2-[[3-(tri-fluoromethyl)tetrahydrofuran-3-yl]amino]acetyl]pyrrole-2-carboxamide] showed an EC50 (HBV [2]; [5]) of 0.003 µM and a CC50 at 4 days ([3]; HepG2 cells) greater than 25 µM.
